Assay results: paper PMC9354042, “Discovery of BRAF/HDAC Dual Inhibitors Suppressing Proliferation of Human Colorectal Cancer Cells” (Frontiers in Chemistry, 2022)
“Also recorded” adds a separate entry of the source. Like-named read-outs stand apart in the source and are kept apart here.

What was measured:
[1] = molecular target: T1, HDAC5 (Homo sapiens, UniProt Q9UQL6); experiment: HDAC5 fluorescent-based enzymatic activity assay; assay type: biochemical; settings: Table 3 isoform panel; read-out: Enzyme inhibition HDAC5 (Class IIA)
T1 construct: purchased BPS Bioscience
T1 sequence (Q9UQL6 whole entry, canonical isoform): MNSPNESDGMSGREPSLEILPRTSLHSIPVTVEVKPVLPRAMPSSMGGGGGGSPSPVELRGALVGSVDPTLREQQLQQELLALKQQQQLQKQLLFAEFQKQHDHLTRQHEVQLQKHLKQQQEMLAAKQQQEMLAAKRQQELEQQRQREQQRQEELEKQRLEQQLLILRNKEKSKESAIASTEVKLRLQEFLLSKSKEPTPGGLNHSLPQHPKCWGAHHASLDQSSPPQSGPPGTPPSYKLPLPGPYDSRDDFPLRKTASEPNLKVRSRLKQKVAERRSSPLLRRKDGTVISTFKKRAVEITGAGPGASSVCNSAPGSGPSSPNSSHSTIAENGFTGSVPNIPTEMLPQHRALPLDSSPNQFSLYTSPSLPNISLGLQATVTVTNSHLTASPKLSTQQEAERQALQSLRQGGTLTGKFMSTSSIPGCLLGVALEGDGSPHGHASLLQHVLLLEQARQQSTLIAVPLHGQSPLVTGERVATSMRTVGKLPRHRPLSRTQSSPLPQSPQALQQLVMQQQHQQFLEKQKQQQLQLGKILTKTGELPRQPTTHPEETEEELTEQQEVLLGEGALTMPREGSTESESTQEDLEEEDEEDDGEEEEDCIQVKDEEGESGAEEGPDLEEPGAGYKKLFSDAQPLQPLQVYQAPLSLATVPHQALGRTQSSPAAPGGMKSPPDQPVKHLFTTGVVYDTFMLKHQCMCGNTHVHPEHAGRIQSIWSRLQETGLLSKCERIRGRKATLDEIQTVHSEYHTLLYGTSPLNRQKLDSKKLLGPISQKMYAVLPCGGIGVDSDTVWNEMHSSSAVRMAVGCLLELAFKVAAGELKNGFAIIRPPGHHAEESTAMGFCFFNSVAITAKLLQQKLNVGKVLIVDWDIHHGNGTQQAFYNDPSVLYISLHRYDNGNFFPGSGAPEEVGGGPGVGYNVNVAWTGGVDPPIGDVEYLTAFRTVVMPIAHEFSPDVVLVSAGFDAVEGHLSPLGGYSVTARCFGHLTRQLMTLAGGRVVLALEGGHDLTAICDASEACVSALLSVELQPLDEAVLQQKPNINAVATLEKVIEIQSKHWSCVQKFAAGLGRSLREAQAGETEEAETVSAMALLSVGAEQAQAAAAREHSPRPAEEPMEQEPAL
Method: (§1) The purified recombinant Human HDACs and their corresponding substrates were purchased from BPS Bioscience (BPS Bioscience Inc., United States). The assays were carried out in a 384-well format using the BPS fluorescent–based HDAC activity assay according to the manufacturer’s protocol. In brief, […] of the HDAC reaction mixture was composed of HDAC assay buffer, […] BSA, serial diluted test compounds, appropriate concentration of HDACs, and […] fluorogenic substrate, the mixture was incubated at 37°C for 60 min, and then stopped by the addition of developer containing trypsin and TSA. After 20 min of incubation, the fluorescence was detected at the excitation wavelength of 360 nm and the emission wavelength of 460 nm using the EnVision Multilabel Reader (PerkinElmer Inc., United States). The analytical software, GraphPad Prism 5.0 (GraphPad Software, Inc., United States) was used to generate IC50 value via non-linear regression analysis.

[2] = test system: HCT116 cells; experiment: Antiproliferation CCK-8 assay, HCT116; assay type: cell-based; settings: Homo sapiens, HCT-116; CCK-8, 72 h, HCT116 (wild-type BRAF); means of three independent experiments; read-out: Cellular IC50 HCT116
Method: HCT116 and HT-29 cells were obtained from the Shanghai Cell Bank (Type Culture Collection (TCC), Chinese Academy of Sciences) and cultured in DMEM (10–013-CVR, corning) supplemented with 10% fetal bovine serum (04-001-1A, BI), 1% penicillin/streptomycin (03-031-1B, BI).
The cells in the logarithmic phase were placed in 96-well plates (∼3000 cells/well) in a complete medium. After incubation overnight, the cells were exposed to the corresponding compounds or vehicle control at the indicated concentration for a further 72 h. Cell proliferation was evaluated using Cell Counting Kit 8 (CCK8, CK04, Dojindo Laboratories, Kumamoto, Japan). OD450 and OD650 were determined using a microplate reader. Absorbance rate (A) for each well was calculated as OD450 −OD650. […] Each IC50 value is expressed as mean ± SD. As is the absorbance rate of the test compound well, Ac is the absorbance rate of the well without either the cell or test compound, and Ab is the absorbance rate of the well with the cell and vehicle control.

[3] = molecular target: T2, HDAC1 (Homo sapiens, UniProt Q13547); experiment: HDAC1 fluorescent-based enzymatic activity assay; assay type: biochemical
T2 construct: purchased BPS Bioscience
T2 sequence (Q13547 whole entry): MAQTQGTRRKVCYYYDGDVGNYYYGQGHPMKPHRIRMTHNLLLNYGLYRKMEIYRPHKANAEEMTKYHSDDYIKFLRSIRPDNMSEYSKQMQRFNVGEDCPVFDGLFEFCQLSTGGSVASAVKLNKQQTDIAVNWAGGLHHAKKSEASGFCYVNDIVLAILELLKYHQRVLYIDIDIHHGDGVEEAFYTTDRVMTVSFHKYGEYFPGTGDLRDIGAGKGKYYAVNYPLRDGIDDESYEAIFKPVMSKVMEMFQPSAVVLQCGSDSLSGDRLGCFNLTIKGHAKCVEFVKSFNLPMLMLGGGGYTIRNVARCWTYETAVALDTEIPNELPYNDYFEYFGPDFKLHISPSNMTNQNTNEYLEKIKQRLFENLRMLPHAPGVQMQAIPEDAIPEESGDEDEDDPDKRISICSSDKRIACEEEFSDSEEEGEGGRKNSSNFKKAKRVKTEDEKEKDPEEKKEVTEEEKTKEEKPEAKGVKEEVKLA
Method: as §1

[4] = test system: BRAF (wild-type); experiment: wild-type BRAF enzymatic activity, Z'-Lyte kinase assay; assay type: biochemical; settings: ratio of enzymatic IC50
Method: (§2) The experiments were performed according to the instructions of the manufacturer. […] For each assay, 10 μl kinase reactions were added to 384-well plate, mixed thoroughly, and incubated for 1 hour at room temperature. Then, a 5 μl development solution was added to each well and the plate was incubated for another 1 h at room temperature. Then, a 5 μl stop reagent was loaded to stop the reaction. For the control setting, a 5 μl phospho-peptide solution instead of kinase/peptide mixture was used as 100% phosphorylation control. […] The plate was measured on an EnVision Multilabel Reader (Perkin-Elmer). Curve fitting and data presentations were performed using GraphPad Prism, version 5.0. Every experiment was repeated at least two times.

[5] = molecular target: T3, BRAF (wild-type) (Homo sapiens, UniProt P15056); experiment: as above; assay type: biochemical; settings: wild-type BRAF kinase; read-out: BRAF^wt enzymatic IC50
T3 construct: purchased Invitrogen
T3 sequence (P15056 whole entry): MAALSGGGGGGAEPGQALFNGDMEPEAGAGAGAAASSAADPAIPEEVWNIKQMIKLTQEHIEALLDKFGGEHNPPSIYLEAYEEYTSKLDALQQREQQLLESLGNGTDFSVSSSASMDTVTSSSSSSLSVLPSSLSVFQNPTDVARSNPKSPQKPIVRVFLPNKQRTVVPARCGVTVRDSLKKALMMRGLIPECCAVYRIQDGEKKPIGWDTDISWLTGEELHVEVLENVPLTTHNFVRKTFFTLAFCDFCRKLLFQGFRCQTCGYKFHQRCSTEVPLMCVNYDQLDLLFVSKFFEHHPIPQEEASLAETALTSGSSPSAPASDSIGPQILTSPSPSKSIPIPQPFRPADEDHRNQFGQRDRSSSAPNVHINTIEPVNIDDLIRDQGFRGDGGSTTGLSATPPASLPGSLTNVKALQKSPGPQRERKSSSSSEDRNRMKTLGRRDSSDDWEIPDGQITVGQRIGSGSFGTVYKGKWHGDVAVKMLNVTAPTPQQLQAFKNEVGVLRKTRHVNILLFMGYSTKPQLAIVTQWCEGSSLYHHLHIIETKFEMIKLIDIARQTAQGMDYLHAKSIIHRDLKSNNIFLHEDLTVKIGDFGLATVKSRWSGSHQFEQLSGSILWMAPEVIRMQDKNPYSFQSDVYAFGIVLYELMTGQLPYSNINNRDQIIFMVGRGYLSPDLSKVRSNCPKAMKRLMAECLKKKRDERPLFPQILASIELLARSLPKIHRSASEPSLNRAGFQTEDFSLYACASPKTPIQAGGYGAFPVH
Method: as §2

[6] = test system: P-ERK in B16 cells; experiment: Immunoblot analysis of P-ERK in B16 cells; assay type: cell-based; settings: B16 mouse melanoma cells with wild type BRAF, 24 h
Excerpt: Supplementary Figure 2. 14b inhibit the phosphorylation of ERK in B16 cells.

[7] = molecular target: T4, BRAF^V600E (Homo sapiens, UniProt P15056, V600E); experiment: BRAF V600E enzymatic activity, FRET-based Z'-Lyte kinase assay; assay type: biochemical
T4 construct: purchased Invitrogen
T4 sequence (P15056 whole entry V600E): as the sequence (P15056 whole entry) above, with V600E counted along it
Method: as §2

[8] = test system: Ac-histone H3, Ac-α-tubulin, p-ERK in HT-29 cells; experiment: Western blot analysis of HDAC and RAF pathway in HT-29 cells; assay type: cell-based, human
Method: FIGURE 3 Characterization of dual inhibition of HDAC and RAF pathway. Western blot analysis of 14b in HCT116 cells (A) and in HT-29 cells (B). Cells were treated with 0 μM, 0.12 μM, 0.37 μM, 1.1 μM, 3.3 μM, and 10 μM of drugs and incubated for 6 h. The cell lysis was subjected to Western blot analysis.
The cells were treated with various concentrations of 14b for 6 h. Then, the cells were lysed using 1×SDS sample lysis buffer (CST recommended) with protease and phosphatase inhibitors. Cell lysates were loaded and electrophoresed onto 8–12% SDS-PAGE gel, and then the separated proteins were transferred to a PVDF film. The film was blocked with 5% BSA (Sigma-Aldrich, St. Louis, MO, United States) in a TBS solution containing 0.5% Tween-20 for 4 h at room temperature, then incubated with the corresponding primary antibody (1:1000–1:200) overnight at 4°C. After washing with TBST, HRP-conjugated secondary antibody was incubated for 2 h. The protein signals were visualized by the ECL Western Blotting Detection Kit (Thermo Scientific, Grand Island, NY, United States), and detected with Amersham Imager 600 system (GE, Boston, MA, United States).

[9] = molecular target: T5, HDAC8 (Homo sapiens, UniProt Q9BY41); experiment: HDAC8 fluorescent-based enzymatic activity assay; assay type: biochemical; settings: Table 3 isoform panel; read-out: Enzyme inhibition HDAC8 (Class I)
T5 construct: purchased BPS Bioscience
T5 sequence (Q9BY41 1-377): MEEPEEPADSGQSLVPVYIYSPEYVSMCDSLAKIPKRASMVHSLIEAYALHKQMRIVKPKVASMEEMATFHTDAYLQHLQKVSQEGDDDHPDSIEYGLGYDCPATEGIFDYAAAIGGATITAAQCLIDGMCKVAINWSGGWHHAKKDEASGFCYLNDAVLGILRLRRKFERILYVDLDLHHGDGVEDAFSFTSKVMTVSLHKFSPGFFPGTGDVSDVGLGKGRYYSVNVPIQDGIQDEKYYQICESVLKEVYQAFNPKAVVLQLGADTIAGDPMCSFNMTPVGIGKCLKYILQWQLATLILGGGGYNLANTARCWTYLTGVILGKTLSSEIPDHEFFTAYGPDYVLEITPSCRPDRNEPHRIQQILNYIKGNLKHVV
Method: as §1

IC50 [1]: 52.9 µM
IC50 [2]: 1.68 µM
IC50 ([3]; Table 1, read-out: Enzymatic IC50 HDAC1): 0.494 µM
IC50 ([3]; Table 3 isoform panel, read-out: Enzyme inhibition HDAC1 (Class I)): 0.493 µM
selectivity of BRAF^V600E over wild-type BRAF [4]: about 2 fold
IC50 [5]: 0.00407 µM
IC50 [7]: 0.00171 µM
IC50 [9]: 3 µM
Structure (SMILES): CC(C)(C)c1nc(-c2cccc(NS(=O)(=O)c3c(F)cccc3F)c2F)c(-c2ccnc(NCCCCCCC(=O)NO)n2)s1 [14b, 7-{[4-(2-(Tert-Butyl)-4-(3-((2,6-Difluorophenyl)Sulfonamido)-2-Fluorophenyl)Thiazol-5-yl)Pyrimidin-2-yl]Amino}-N-Hydroxyheptanamide]
phosphorylation of ERK (P-ERK) [6]: downregulate P-ERK; also recorded: p-ERK inhibition was observed
expression of BRAF [8]: did not affect the expression of BRAF itself
acetylated histone H3 (Ac-histone H3) ([8]; 0.12-10 μM, 6 h): upregulated
acetylated α-tubulin (Ac-α-tubulin) ([8]; 0.12-10 μM, 6 h): upregulated
phosphorylation of ERK (p-ERK) ([8]; 0.12-10 μM, 6 h): significantly inhibited at the lowest concentration of 0.12 μM
